Measured values from ChEMBL document CHEMBL5104187, “Discovery of 2-(1-(3-Chloro-4-cyanophenyl)-1H-pyrazol-3-yl)acetamides as Potent, Selective, and Orally Available Antagonists Targeting the Androgen Receptor” (J Med Chem, 2022).
pIC50, pKd: −log10 of the molar value. Calls of active or inactive are those of the source. The rule behind the calls is not given here.

Key:
Androgen receptor [1] = target: T1, Androgen receptor (Homo sapiens, UniProt P10275); assay: Antagonist activity at androgen receptor (unknown origin) in human LNCap-ARR2PB-eGFP cells by measuring fluorescence intensity measured after 3 days by transcriptional assay; type: cell-based
T1 sequence (P10275 whole entry): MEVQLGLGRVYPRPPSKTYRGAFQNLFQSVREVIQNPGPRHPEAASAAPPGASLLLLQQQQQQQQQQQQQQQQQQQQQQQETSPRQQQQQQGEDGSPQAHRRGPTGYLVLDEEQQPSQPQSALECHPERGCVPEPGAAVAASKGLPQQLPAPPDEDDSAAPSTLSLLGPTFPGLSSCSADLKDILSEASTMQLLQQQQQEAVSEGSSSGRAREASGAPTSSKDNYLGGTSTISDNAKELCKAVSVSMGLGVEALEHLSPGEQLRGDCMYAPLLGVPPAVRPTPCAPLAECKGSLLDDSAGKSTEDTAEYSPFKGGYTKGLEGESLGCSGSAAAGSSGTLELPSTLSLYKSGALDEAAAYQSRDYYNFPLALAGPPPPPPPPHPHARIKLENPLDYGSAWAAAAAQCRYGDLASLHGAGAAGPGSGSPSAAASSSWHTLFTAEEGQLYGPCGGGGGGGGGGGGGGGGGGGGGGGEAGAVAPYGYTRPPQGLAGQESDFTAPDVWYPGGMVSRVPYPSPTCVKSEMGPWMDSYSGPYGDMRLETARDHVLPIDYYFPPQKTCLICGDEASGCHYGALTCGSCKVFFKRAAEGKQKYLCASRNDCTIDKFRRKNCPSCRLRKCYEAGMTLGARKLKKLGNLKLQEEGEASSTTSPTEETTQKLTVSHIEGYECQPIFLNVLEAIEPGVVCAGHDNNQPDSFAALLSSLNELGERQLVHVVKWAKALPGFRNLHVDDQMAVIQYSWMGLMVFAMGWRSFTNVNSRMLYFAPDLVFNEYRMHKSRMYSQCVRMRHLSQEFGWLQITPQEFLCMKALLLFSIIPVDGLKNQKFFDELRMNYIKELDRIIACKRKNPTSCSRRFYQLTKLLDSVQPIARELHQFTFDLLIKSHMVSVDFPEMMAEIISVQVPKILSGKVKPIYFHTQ

Androgen receptor [2] = target: T2, Androgen receptor (Homo sapiens, UniProt P10275, F877L/T878A); assay: Antagonist activity at androgen receptor F876L/T877A mutant in human PC-3 cells assessed as inhibition of transcriptional activity measured after 24 hrs by luminescence based microplate reader assay; type: cell-based
T2 sequence (P10275 whole entry F877L/T878A): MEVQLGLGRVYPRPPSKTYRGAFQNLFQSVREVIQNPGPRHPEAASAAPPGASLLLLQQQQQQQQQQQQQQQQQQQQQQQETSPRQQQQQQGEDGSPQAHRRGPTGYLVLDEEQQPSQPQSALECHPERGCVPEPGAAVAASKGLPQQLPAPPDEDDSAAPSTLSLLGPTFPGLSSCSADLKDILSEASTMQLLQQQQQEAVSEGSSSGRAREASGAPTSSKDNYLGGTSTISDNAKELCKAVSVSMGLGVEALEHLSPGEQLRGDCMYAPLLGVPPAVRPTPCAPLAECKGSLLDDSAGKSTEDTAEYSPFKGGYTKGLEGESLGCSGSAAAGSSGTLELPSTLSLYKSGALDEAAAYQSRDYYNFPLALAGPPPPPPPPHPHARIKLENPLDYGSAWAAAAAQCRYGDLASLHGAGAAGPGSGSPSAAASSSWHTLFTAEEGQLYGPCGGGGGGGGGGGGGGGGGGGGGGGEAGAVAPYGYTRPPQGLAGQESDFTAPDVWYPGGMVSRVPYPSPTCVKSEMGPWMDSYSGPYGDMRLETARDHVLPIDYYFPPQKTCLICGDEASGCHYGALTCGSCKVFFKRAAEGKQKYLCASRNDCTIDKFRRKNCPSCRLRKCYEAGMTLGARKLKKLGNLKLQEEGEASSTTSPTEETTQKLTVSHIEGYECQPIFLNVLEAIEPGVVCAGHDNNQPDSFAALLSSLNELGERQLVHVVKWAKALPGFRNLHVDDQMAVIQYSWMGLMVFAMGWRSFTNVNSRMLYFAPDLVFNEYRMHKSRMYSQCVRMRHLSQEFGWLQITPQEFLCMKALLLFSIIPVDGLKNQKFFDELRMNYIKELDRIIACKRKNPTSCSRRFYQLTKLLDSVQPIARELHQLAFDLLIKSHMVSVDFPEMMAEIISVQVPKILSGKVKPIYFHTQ

[3] = target: T3, Androgen receptor (Homo sapiens) (UniProt P10275); assay: Antagonist activity at human AR AF2 assessed as inhibition of fluorescent-labelled D11-FxxLF peptide Co-activator to receptor by TR-FRET assay; settings: filed as antagonist
T3 sequence (whole entry): T1 sequence (P10275 whole entry)

Androgen receptor [4] = target: T4, Androgen receptor (Homo sapiens, UniProt P10275, F877L); assay: Antagonist activity at androgen receptor F877L mutant (unknown origin) expressed in PC-3 cells assessed as inhibition of transcriptional activity measured after 24 hrs by dual luciferase assay; type: cell-based
T4 sequence (P10275 whole entry F877L): as the sequence (P10275 whole entry F877L/T878A) above, with A878T counted along it

Androgen receptor [5] = target: T4, Androgen receptor; assay: Antagonist activity at androgen receptor F877L mutant in human PC-3 cells assessed as inhibition of transcriptional activity measured after 24 hrs by luminescence based microplate reader assay; type: cell-based
[6] = Cytotoxicity against human Chang liver cells assessed as inhibition of cell proliferation by MTT assay; type: toxicity, cell-based
Androgen receptor [7] = target: T1, Androgen receptor
[8] = Antagonist activity at androgen receptor T878G mutant (unknown origin) expressed in PC-3 cells assessed as inhibition of transcriptional activity measured after 24 hrs by dual luciferase assay; type: cell-based; settings: Homo sapiens, PC-3, 24 h
[9] = Antagonist activity at mineralocorticoid receptor (unknown origin) transfected in PC-3 cells assessed as inhibition of […]-stimulated transcriptional activity after 3 days by dual luciferase reporter assay; type: cell-based; settings: Homo sapiens, PC-3, 72 h
Androgen receptor [10] = target: T2, Androgen receptor; assay: Antagonist activity at androgen receptor F877L/T877A dual mutant (unknown origin) expressed in PC-3 cells assessed as inhibition of transcriptional activity measured after 24 hrs by dual luciferase assay; type: cell-based
LNCaP [11] = assay: Cytotoxicity against human LNCAP cells assessed as inhibition of cell proliferation by MTT assay; type: functional, cell-based
[12] = Inhibition of PSA secretion in human LNCaP ARR2PB-eGFP cells measured after 3 days by immuno assay; type: functional, cell-based; settings: 72 h
[13] = Cytotoxicity against human GES1 cells assessed as inhibition of cell proliferation by MTT assay; type: toxicity, cell-based
LNCaP [14] = assay: Antitumor activity against human LNCAP cells xenografted in CB17-SCID mouse model assessed as inhibition of tumor growth at 100 mg/kg/day, po measured upto 4 weeks; type: functional, organism-based
[15] = Toxicity in CB17 SCID mouse xenografted with human LNCAP cells assessed as body weight loss at 100 mg/kg/day,po measured upto 4 weeks; type: organism-based; settings: in vivo, 672 h
LNCaP [16] = assay: Antitumor activity against human LNCAP cells xenografted in CB17-SCID mouse model assessed as inhibition of tumor growth at 40 mg/kg/day, po measured upto 4 weeks; type: functional, organism-based

**Q.** With O=C(Cc1ccn(-c2ccc([N+](=O)[O-])c(C(F)(F)F)c2)n1)Nc1ccc(F)cn1 as the compound, how does the pIC50 (Androgen receptor [1]) read?
**A.** 5.59

**Q.** With N#Cc1ccc(NC(=O)c2ccn(-c3ccc(C#N)c(C(F)(F)F)c3)n2)cc1 as the compound, how does the pIC50 (Androgen receptor [1]) read?
**A.** < 4.60

**Q.** With N#Cc1ccc(-n2ccc(CNC(=O)Nc3ccc(F)cc3)n2)cc1C(F)(F)F as the compound, how does the pIC50 (Androgen receptor [1]) read?
**A.** < 4.60

**Q.** With Cc1cn(-c2ccc(C#N)c(C(F)(F)F)c2)nc1CNC(=O)c1ccc(C#N)cc1 as the compound, how does the pIC50 (Androgen receptor [1]) read?
**A.** 4.83

**Q.** With N#Cc1ccc(-n2ccc(CNC(=O)c3ccc(Cl)cc3)n2)cc1C(F)(F)F as the compound, how does the pIC50 (Androgen receptor [1]) read?
**A.** 5.94

**Q.** Which results are given for N#Cc1ccc(-n2ccc(CC(=O)Nc3ccc(F)cc3)n2)cc1C(F)(F)F?
**A.** pIC50 (Androgen receptor [1]): 6.92; pIC50 (Androgen receptor [2]): 6.60; Activity [3]: Active; pIC50 (Androgen receptor [4]): 6.04; pIC50 (Androgen receptor [5]): 6.04; pIC50 [6]: < 3.00; pKd (Androgen receptor [7]): 5.00; pIC50 [8]: 7.10; pIC50 [9]: 5.35; pIC50 (Androgen receptor [10]): 6.60; pIC50 (LNCaP [11]): 5.23; pIC50 [12]: 5.41; pIC50 [13]: < 3.00

**Q.** With N#Cc1ccc(-n2ccc(NC(=O)c3ccc(F)cc3)n2)cc1C(F)(F)F as the compound, how does the pIC50 (Androgen receptor [1]) read?
**A.** < 4.60

**Q.** With N#Cc1ccc(-n2ccc(CC(=O)Nc3ccc(F)cn3)n2)cc1Cl as the compound, how does the pIC50 (Androgen receptor [1]) read?
**A.** 6.77

**Q.** With N#Cc1ccc(-n2cc(-c3ccccc3)c(CNC(=O)c3ccc(F)cc3)n2)cc1C(F)(F)F as the compound, how does the pIC50 (Androgen receptor [1]) read?
**A.** < 4.60

**Q.** With O=C(Cc1ccn(-c2ccc([N+](=O)[O-])c(C(F)(F)F)c2)n1)Nc1ccc(F)nc1 as the compound, how does the pIC50 (Androgen receptor [1]) read?
**A.** 6.44

**Q.** With N#Cc1ccc(-n2ccc(CNC(=O)c3ccc(F)cn3)n2)cc1C(F)(F)F as the compound, how does the pIC50 (Androgen receptor [1]) read?
**A.** 5.24

**Q.** With CC(O)c1cc(C(=O)N[C@H](C)Cn2ccc(-c3ccc(C#N)c(Cl)c3)n2)n[nH]1 (stereo partly specified) as the compound, how does the pIC50 [8] read?
**A.** 6.16

**Q.** With N#Cc1ccc(-n2ccc(C(=O)Nc3ccncc3)n2)cc1C(F)(F)F as the compound, how does the pIC50 (Androgen receptor [1]) read?
**A.** < 4.60

**Q.** With N#Cc1ccc(NC(=O)Cc2ccn(-c3ccc(C#N)c(C(F)(F)F)c3)n2)cc1 as the compound, how does the pIC50 (Androgen receptor [1]) read?
**A.** 7.30

**Q.** With N#Cc1ccc(-n2ccc(CNC(=O)c3ccc(F)nc3)n2)cc1C(F)(F)F as the compound, how does the pIC50 (Androgen receptor [1]) read?
**A.** 6.11

**Q.** With N#Cc1ccc(-n2ccc(C(=O)Nc3ccc(F)cc3)n2)cc1C(F)(F)F as the compound, how does the pIC50 (Androgen receptor [1]) read?
**A.** < 4.60

**Q.** With Cc1cn(-c2ccc(C#N)c(C(F)(F)F)c2)nc1CNC(=O)c1ccc(F)cc1 as the compound, how does the pIC50 (Androgen receptor [1]) read?
**A.** 6.66

**Q.** With N#Cc1ccc(-n2ccc(NC(=O)Nc3ccc(F)cc3)n2)cc1C(F)(F)F as the compound, how does the pIC50 (Androgen receptor [1]) read?
**A.** < 4.60

**Q.** Which results are given for N#Cc1ccc(-n2ccc(CC(=O)Nc3ccc(F)nc3)n2)cc1Cl?
**A.** pIC50 (Androgen receptor [1]): 7.16; Activity (LNCaP [14]): Active; pIC50 (Androgen receptor [2]): 6.57; Activity [3]: Active; pIC50 (Androgen receptor [4]): 6.34; pIC50 (Androgen receptor [5]): 6.77; Activity [15]: Non-Toxic; pIC50 [6]: < 3.00; pKd (Androgen receptor [7]): 4.69; pIC50 [8]: 7.35; Activity (LNCaP [16]): Active; pIC50 [9]: 5.26; pIC50 (Androgen receptor [10]): 6.57; pIC50 (LNCaP [11]): 5.21; pIC50 [12]: 6.05; pIC50 [13]: < 3.00

**Q.** With N#Cc1ccc(-n2ccc(CCCNC(=O)c3ccc([N+](=O)[O-])cc3)n2)cc1C(F)(F)F as the compound, how does the pIC50 (Androgen receptor [1]) read?
**A.** < 4.60

**Q.** With N#Cc1ccc(-n2ccc(CCCNC(=O)c3ccc(F)cc3)n2)cc1C(F)(F)F as the compound, how does the pIC50 (Androgen receptor [1]) read?
**A.** < 4.60

**Q.** With Cc1ccc(NC(=O)Cc2ccn(-c3ccc(C#N)c(C(F)(F)F)c3)n2)cc1 as the compound, how does the pIC50 (Androgen receptor [1]) read?
**A.** 5.34

**Q.** With N#Cc1ccc(-n2ccc(CNS(=O)(=O)c3ccc(F)cc3)n2)cc1C(F)(F)F as the compound, how does the pIC50 (Androgen receptor [1]) read?
**A.** < 4.60

**Q.** With N#Cc1ccc(-n2ccc(CNC(=O)c3ccc([N+](=O)[O-])cc3)n2)cc1C(F)(F)F as the compound, how does the pIC50 (Androgen receptor [1]) read?
**A.** 5.73
